Values quoted from earlier work as cited in patent publication US20240043473A1, “NOOTROPIC PEPTIDES FOR TREATING LYSOSOMAL STORAGE DISEASES” (Phoenix Nest Inc., priority 2021, published 2024).

System: BDNF and its signaling receptor TrkB in the hippocampus
Conditions: in animals; cited from earlier work

Semax: synthetic analogue of ACTH(4-10), consisting of ACTH(4-7) and the C-terminal tripeptide Pro-Gly-Pro; MEHFPGP (SEQ ID NO: 1)
levels and expression of BDNF and its signaling receptor TrkB in the hippocampus: rapidly elevates the levels and expression
serotonergic and dopaminergic brain systems: rapidly activates
